# Where two headings read alike, the source gives them in different places.
# Key:
# [1] = system: Phytophthora infestans (PHYTIN); experiment: microbe, parasite or virus in culture; type: cell-based; conditions: Phytophthora infestans, read-out: PHYTIN in vitro Growth Inhibition
# [2] = system: Mycosphaerella graminicola (Septoria tritici—SEPTTR); experiment: In vitro fungal growth inhibition, Mycosphaerella graminicola (SEPTTR); type: cell-based; conditions: Zymoseptoria tritici, read-out: SEPTTR in vitro Growth Inhibition
# [3] = system: Rhizoctonia solani (RHIZSO); experiment: microbe, parasite or virus in culture; type: cell-based; conditions: Rhizoctonia solani, read-out: RHIZSO in vitro Growth Inhibition
# [4] = system: Magnaporthe grisea (Pyricularia oryzae—PYRIOR); experiment: microbe, parasite or virus in culture; type: cell-based; conditions: Pyricularia oryzae, read-out: PYRIOR in vitro Growth Inhibition
# [5] = system: Ustilago maydis (USTIMA); experiment: microbe, parasite or virus in culture; type: cell-based; conditions: Mycosarcoma maydis, read-out: USTIMA in vitro Growth Inhibition
# [6] = system: Stagonospora nodorum (Leptosphaeria nodorum—LEPTNO); experiment: In vitro fungal growth inhibition, Stagonospora nodorum (LEPTNO); type: cell-based; conditions: Leptosphaeria, read-out: LEPTNO in vitro Growth Inhibition
# [7] = system: Erysiphe graminis—ERYSGT; experiment: Powdery Mildew of Wheat, in vivo whole plant, 24 Hour Protectant; conditions: for pest or weed control at 100 ppm: Erysiphe, read-out: ERYSGT in vivo 1 Day Protectant
# [8] = system: Phytophthora infestans—PHYTIN; experiment: whole plant or invertebrate; type: in vivo; conditions: Phytophthora, in Solanum lycopersicum, 24 h, read-out: PHYTIN in vivo 1 Day Protectant
# [9] = system: Septoria tritici—SEPTTR; experiment: Leaf Blotch of Wheat, in vivo whole plant, 24 Hour Protectant; conditions: Zymoseptoria tritici, 24 h, 100 ppm spray, 24 hour protectant, wheat, read-out: SEPTTR in vivo 1 Day Protectant
# [10] = system: Leptosphaeria nodorum—LEPTNO; experiment: Glume Blotch of Wheat, in vivo whole plant, 24 Hour Protectant; conditions: for pest or weed control at 100 ppm: Leptosphaeria, read-out: LEPTNO in vivo 1 Day Protectant
# [11] = system: Puccinia recondita—PUCCRT; experiment: Brown Rust of Wheat, in vivo whole plant, 24 Hour Protectant; conditions: for pest or weed control at 100 ppm: Puccinia, read-out: PUCCRT in vivo 1 Day Protectant
# [12] = 100 ppm spray, 24 hour protectant, wheat, control of fungal infection vs untreated plants
# [13] = control of fungal infection vs untreated plants
# [14] = 100 ppm spray, wheat, 24 hour protectant, % control of fungal infection vs untreated plants
SMILES,inhibition at 25 ppm [1],inhibition at 25 ppm ([2]; 25 ppm in growth medium),melting point,inhibition at 25 ppm [3],inhibition at 25 ppm [4],inhibition at 25 ppm [5],inhibition at 25 ppm ([6]; 25 ppm in growth medium),"pest or weed control at 100 ppm [7, 12]",pest or weed control at 100 ppm [8],"pest or weed control at 100 ppm [9, 13]","pest or weed control at 100 ppm [10, 12]","pest or weed control at 100 ppm [11, 12]","pest or weed control at 100 ppm [7, 14]",other results
O=C(NC1CCCCCCC1)c1ncccc1O [Compound 203],< 80%,> 80%,63 to 64 °C,> 80%,> 80%,< 80%,> 80%,,,,,,,
O=C(NC1CCC(O)CC1)c1ncccc1O (stereo not shown) [Compound 208],< 80%,< 80%,112 to 115 °C,< 80%,< 80%,< 80%,< 80%,< 25%,25 to 74%,< 25%,< 25%,25 to 74%,,
CC(=O)OC1CCC(NC(=O)c2ncccc2O)CC1 (stereo not shown) [Compound 209],< 80%,< 80%,123 to 126 °C,< 80%,< 80%,< 80%,< 80%,< 25%,< 25%,25 to 74%,< 25%,< 25%,,
CC(C)C(=O)OC1CCC(NC(=O)c2ncccc2O)CC1 (stereo not shown) [Compound 210],< 80%,< 80%,139 to 142 °C,< 80%,< 80%,< 80%,< 80%,< 25%,< 25%,25 to 74%,< 25%,< 25%,,
O=C(OC1CCC(NC(=O)c2ncccc2O)CC1)c1ccccc1 (stereo not shown) [Compound 211],< 80%,< 80%,154 to 157 °C,< 80%,< 80%,< 80%,< 80%,< 25%,< 25%,25 to 74%,25 to 74%,< 25%,,
O=C(Nc1cccc(Cl)c1)c1ncccc1O [Compound 212],< 80%,< 80%,131 to 132 °C,< 80%,> 80%,< 80%,< 80%,< 25%,< 25%,< 25%,< 25%,< 25%,,
COc1cc(NC(=O)c2ncccc2O)cc(OC)c1 [Compound 216],< 80%,< 80%,127 to 129 °C,< 80%,> 80%,< 80%,< 80%,< 25%,< 25%,< 25%,< 25%,< 25%,,
O=C(Nc1ccc(Oc2ccc(C(F)(F)F)cc2)cc1)c1ncccc1O [Compound 217],< 80%,< 80%,131 to 133 °C,< 80%,< 80%,< 80%,< 80%,25 to 74%,< 25%,< 25%,< 25%,< 25%,,
O=C(NCc1ccccc1Cl)c1ncccc1O [Compound 218],> 80%,< 80%,97 to 99 °C,> 80%,> 80%,> 80%,> 80%,< 25%,< 25%,< 25%,< 25%,< 25%,,
COc1ccnc(C(=O)NC2CCN(Cc3cccc(C(F)(F)F)c3)CC2)c1O.O=C(O)/C=C\C(=O)O.O=C(O)/C=C\C(=O)O [Compound 307],< 80%,,168 to 170 °C,< 80%,< 80%,< 80%,,,< 25%,,,,,pest or weed control at 100 ppm ([7]; 24 h): 25 to 74%; inhibition at 25 ppm [2]: < 80%; pest or weed control at 100 ppm ([10]; 24 h): < 25%; pest or weed control at 100 ppm ([11]; 24 h): < 25%; inhibition at 25 ppm [6]: < 80%
COc1ccnc(C(=O)N[C@H]2COC(=O)[C@H](Cc3ccccc3)[C@@H](OC(=O)C(C)C)[C@H](C)OC2=O)c1OC(=O)C(C)C [Compound 602],< 80%,< 80%,160 to 161 °C,< 80%,< 80%,< 80%,> 80%,,< 25%,,,,< 25%,
COc1ccnc(C(=O)Nc2ccc(Oc3ccc(C(F)(F)F)cc3)cc2)c1OC(C)=O [Compound 709],< 80%,> 80%,165 to 166 °C,> 80%,> 80%,> 80%,> 80%,,< 25%,,,,,"ERYSGT in vivo 1 Day Protectant [7, 14]: + +; LEPTNO in vivo 1 Day Protectant [10, 14]: + +; pest or weed control at 100 ppm [11, 14]: < 25%"
COCCC(=O)Oc1c(OC)ccnc1C(=O)Nc1ccc(C(=O)Oc2cccc(C(F)(F)F)c2)cc1 [Compound 716],< 80%,< 80%,,< 80%,< 80%,< 80%,< 80%,,< 25%,,,,< 25%,"pest or weed control at 100 ppm ([9]; % control of fungal infection vs untreated plants): 25 to 74%; pest or weed control at 100 ppm [10, 14]: 25 to 74%; pest or weed control at 100 ppm [11, 14]: 25 to 74%"
COc1ccnc(C(=O)N[C@H]2COC(=O)[C@H](Cc3ccccc3)[C@@H](OC(=O)C(C)C)[C@H](C)OC2=O)c1OS(C)(=O)=O [Compound 721],< 80%,< 80%,189 to 194 °C,< 80%,< 80%,< 80%,> 80%,,< 25%,,,,< 25%,"LEPTNO in vivo 1 Day Protectant [10, 14]: + +; PUCCRT in vivo 1 Day Protectant [11, 14]: + +"
COc1ccnc(C(=O)N[C@H]2COC(=O)[C@H](Cc3ccccc3)[C@@H](OC(=O)C(C)C)[C@H](C)OC2=O)c1OS(=O)(=O)c1ccc(C)cc1 [Compound 722],< 80%,< 80%,153 to 155 °C,< 80%,< 80%,< 80%,< 80%,,< 25%,,,,< 25%,"LEPTNO in vivo 1 Day Protectant [10, 14]: + +; pest or weed control at 100 ppm [11, 14]: 25 to 74%"
COc1ccnc(C(=O)Nc2ccc(Oc3ccc(C(F)(F)F)cc3)cc2)c1OS(C)(=O)=O [Compound 723],< 80%,< 80%,177 to 180 °C,< 80%,< 80%,< 80%,< 80%,,25 to 74%,,,,< 25%,"pest or weed control at 100 ppm [10, 14]: 25 to 74%; pest or weed control at 100 ppm [11, 14]: 25 to 74%"

# — patent US6706740B2, “Fungicidal heterocyclic aromatic amides and their compositions, methods of use and preparation” (Dow AgroSciences LLC, priority 1999, dated 2004)
